Format in all cases: biochemical
One assay deals with T1, EGFR kinase (Homo sapiens, UniProt P00533).
T1 construct: purchased Reaction Biology Co. (Kinase HotSpot service)
Put plainly: EGFR kinase inhibition assay (HotSpot).

A further assay has as its target T2, KDR/VEGFR2 (Homo sapiens, UniProt P35968).
T2 construct: purchased Reaction Biology Co. (Kinase HotSpot service)
Put plainly: Kinase panel assay, KDR/VEGFR2. The conditions noted are these: KDR/VEGFR2, 10 µM; read-out: Average % Enzyme Inhibition (Relative to DMSO Controls) at 10 µM. On the procedure: (§1) The screening of the tested compounds was performed using the Kinase HotSpot^SM service from Reaction Biology Co. (http://www.reactionbiology.com, accessed on 25 September 2021). The HotSpot assay platform contains specific kinase/substrate pairs along with required cofactors. Base reaction buffer: 20 mM Hepes (pH 7.5), 10 mM MgCl2, 1 mM EGTA, 0.02% Brij35, 0.02 mg/mL BSA, 0.1 mM Na3VO4, 2 mM DTT, 1% DMSO. The tested compounds were dissolved in 100% DMSO to specific concentration. The serial dilution was conducted by Integra Viaflo Assist in DMSO (Sigma-Aldrich, Burlington, MA, USA). The reaction mixture containing the examined compound and 33P-ATP was incubated at room temperature for 2 h, and radioactivity was detected by filter-binding method. Kinase activity data were expressed as the percent remaining kinase activity in test samples compared to vehicle (dimethyl sulfoxide) reactions. IC50 values and curve fits were obtained using Prism (GraphPad Software, San Diego, CA, USA).

For another assay, the target named is T3, ERBB2/HER2 (Homo sapiens, UniProt P04626).
T3 construct: purchased Reaction Biology Co. (Kinase HotSpot service)
The assay can be described thus: Kinase panel assay, ERBB2/HER2. The conditions noted are these: ERBB2/HER2, 10 µM; read-out: Average % Enzyme Inhibition (Relative to DMSO Controls) at 10 µM. As for the experimental part: as §1

Another assay addresses T4, EphB4 (Homo sapiens, UniProt P54760).
T4 construct: purchased Reaction Biology Co. (Kinase HotSpot service)
T4 sequence (P54760 16-987): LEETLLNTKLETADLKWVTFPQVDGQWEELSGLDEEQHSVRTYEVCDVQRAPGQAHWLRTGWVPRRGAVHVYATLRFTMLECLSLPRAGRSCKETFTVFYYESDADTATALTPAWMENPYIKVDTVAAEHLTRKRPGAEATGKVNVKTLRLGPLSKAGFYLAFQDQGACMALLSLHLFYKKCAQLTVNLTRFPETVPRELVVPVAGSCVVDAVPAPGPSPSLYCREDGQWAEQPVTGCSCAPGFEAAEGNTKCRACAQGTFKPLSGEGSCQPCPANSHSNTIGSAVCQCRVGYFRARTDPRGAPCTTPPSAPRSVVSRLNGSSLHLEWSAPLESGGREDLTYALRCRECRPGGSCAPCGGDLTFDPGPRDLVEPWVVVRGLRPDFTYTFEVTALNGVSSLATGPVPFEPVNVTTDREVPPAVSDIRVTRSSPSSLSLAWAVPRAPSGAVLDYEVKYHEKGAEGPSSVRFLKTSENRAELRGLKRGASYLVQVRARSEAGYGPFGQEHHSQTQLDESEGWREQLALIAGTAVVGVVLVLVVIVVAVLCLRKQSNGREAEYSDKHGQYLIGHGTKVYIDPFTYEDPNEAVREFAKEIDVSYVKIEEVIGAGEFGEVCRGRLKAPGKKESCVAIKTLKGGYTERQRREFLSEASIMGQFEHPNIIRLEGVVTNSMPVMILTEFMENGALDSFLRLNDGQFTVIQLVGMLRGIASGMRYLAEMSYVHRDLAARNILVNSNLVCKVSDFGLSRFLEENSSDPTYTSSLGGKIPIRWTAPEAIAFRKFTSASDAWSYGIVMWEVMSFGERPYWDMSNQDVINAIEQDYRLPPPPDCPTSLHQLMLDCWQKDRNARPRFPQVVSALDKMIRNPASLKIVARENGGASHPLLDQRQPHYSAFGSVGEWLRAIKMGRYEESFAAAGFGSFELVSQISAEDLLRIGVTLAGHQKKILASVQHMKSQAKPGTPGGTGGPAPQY
The assay can be described thus: Kinase panel assay, EphB4. On the procedure: as §1, with “The” for “The screening of the tested compounds was performed using the Kinase HotSpot^SM service from Reaction Biology Co. (http://www.reactionbiology.com, accessed on 25 September 2021). The”

Structures are written as SMILES. Where two headings read alike, the source gives them in different places.

T1 sequence (P00533 25-1210): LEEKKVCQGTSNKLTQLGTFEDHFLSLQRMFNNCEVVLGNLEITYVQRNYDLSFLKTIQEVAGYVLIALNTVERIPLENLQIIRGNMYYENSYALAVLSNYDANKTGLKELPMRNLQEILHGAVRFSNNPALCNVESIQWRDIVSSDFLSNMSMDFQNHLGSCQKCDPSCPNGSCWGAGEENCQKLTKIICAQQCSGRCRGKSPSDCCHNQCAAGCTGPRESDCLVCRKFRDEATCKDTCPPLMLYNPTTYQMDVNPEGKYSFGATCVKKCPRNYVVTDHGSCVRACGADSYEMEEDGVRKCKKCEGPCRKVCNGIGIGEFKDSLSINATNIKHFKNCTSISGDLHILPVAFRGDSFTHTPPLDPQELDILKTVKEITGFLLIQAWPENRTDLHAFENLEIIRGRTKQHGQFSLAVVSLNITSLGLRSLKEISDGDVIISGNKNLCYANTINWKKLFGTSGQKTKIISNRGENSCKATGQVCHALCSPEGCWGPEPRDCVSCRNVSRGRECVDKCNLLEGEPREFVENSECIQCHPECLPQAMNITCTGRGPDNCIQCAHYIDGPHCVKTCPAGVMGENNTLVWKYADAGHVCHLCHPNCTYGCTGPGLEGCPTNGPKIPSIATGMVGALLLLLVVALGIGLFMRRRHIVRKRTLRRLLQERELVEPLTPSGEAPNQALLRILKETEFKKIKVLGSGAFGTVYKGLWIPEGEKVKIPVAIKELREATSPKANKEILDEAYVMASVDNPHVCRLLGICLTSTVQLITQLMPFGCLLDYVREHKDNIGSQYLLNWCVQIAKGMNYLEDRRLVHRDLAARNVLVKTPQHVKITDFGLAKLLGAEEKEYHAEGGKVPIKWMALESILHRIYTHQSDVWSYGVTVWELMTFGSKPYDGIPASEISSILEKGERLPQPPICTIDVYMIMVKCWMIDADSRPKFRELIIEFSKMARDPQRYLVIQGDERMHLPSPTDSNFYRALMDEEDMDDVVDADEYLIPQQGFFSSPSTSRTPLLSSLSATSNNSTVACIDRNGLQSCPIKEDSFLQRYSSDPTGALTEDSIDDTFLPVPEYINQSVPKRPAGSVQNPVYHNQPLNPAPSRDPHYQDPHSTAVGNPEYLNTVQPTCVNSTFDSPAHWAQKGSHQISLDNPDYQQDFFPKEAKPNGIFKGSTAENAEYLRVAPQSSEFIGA
T2 sequence (P35968 20-1356): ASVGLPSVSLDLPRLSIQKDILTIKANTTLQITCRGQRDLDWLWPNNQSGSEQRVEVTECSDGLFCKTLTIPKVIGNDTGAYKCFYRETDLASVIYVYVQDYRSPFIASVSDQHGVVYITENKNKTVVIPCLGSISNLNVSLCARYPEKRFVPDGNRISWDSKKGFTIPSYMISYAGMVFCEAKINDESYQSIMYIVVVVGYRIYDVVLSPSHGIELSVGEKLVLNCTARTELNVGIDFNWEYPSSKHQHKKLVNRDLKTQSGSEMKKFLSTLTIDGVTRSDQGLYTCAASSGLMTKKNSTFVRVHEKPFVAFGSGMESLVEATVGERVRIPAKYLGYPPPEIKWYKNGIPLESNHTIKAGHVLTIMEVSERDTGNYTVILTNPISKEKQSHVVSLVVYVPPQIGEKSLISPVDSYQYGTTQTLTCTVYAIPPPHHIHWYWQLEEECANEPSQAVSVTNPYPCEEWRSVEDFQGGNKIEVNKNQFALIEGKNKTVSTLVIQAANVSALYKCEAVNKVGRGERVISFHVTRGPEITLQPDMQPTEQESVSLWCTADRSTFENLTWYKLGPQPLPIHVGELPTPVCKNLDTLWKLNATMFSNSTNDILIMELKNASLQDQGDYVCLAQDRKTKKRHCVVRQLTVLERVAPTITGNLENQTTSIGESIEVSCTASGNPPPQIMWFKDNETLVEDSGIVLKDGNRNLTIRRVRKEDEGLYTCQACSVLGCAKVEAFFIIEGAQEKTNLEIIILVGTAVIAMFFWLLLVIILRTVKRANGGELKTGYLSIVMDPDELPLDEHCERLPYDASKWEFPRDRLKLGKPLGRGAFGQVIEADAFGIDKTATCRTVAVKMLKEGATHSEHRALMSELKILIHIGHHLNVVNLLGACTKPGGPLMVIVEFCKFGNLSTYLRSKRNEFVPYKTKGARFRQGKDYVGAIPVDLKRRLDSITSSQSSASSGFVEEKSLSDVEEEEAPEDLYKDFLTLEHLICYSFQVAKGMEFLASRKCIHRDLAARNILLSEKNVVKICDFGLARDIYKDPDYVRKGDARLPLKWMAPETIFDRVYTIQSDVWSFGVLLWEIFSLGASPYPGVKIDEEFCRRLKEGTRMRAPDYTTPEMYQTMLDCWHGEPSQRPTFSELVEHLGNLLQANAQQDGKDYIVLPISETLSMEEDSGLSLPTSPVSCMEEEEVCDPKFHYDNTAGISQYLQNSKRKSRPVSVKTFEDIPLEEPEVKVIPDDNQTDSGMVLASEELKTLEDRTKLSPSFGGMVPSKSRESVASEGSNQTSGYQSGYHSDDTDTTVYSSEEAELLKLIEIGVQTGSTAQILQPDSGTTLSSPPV
T3 sequence (P04626 23-1255): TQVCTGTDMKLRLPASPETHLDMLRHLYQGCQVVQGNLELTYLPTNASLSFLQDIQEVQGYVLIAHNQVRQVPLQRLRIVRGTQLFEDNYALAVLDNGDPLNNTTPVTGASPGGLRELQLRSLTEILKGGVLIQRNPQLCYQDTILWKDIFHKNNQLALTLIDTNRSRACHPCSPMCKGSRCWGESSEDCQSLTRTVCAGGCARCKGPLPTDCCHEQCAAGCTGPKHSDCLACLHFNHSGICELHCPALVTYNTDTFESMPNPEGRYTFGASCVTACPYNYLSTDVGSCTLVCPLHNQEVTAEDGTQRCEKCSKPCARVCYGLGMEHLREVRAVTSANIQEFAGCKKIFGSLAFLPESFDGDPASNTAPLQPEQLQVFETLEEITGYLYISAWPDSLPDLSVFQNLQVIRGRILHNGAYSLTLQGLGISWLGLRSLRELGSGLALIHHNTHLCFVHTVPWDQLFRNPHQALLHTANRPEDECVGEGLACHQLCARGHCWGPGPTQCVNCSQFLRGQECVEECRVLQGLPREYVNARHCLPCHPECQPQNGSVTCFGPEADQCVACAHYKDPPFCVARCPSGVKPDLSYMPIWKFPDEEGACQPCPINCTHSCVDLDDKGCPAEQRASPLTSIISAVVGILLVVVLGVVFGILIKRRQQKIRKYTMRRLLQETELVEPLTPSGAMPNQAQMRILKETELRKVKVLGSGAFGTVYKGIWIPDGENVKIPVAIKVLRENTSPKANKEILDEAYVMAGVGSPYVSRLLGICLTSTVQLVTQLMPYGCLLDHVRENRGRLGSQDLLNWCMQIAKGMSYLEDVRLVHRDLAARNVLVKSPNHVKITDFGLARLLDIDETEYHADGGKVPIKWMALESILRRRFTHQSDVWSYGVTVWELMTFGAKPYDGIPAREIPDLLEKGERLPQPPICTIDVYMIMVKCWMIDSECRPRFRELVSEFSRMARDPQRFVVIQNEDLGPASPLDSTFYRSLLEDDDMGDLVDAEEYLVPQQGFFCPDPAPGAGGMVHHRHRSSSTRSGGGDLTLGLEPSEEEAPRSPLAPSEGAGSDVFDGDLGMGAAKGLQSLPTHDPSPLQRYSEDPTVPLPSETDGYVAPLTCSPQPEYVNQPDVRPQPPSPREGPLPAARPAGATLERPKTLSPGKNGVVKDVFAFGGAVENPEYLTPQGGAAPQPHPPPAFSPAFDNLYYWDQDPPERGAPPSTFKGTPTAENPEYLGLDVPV

Take `NS(=O)(=O)c1ccc(Nc2ncnc3ccc(-c4cccc(O)c4)cc23)cc1` [Compound 4c, 4-((6-(3-Hydroxyphenyl)quinazolin-4-yl)amino)benzenesulfonamide]: the inhibition (as a rule, the percentage by which the read-out fell short of the control) at 10 µM stood at 46.8 ± 0.54% at EGFR kinase (EGFR kinase, 10 µM compound, 10 µM ATP as printed, read-out: Average % Enzyme Inhibition (Relative to DMSO Controls) at 10 µM); 47.8% on KDR/VEGFR2; 67.8 ± 0.99% on ERBB2/HER2; 70.2 ± 3.64% at EphB4 (EphB4, 10 µM, read-out: Average % Enzyme Inhibition (Relative to DMSO Controls) at 10 µM). The IC50 (usually the point on the concentration scale where inhibition reaches its midpoint) on EGFR kinase (EGFR kinase, dose dependent assay, read-out: IC50) is 8.04 µM; on EGFR kinase (EGFR, read-out: EC50 of the curve fit printed in Figure 6 (IC50 per legend)), 8.04 µM; on EphB4 (EphB4, dose-dependent assay), 3.98 µM.

These data come from paper PMC8708751, “Hit Identification of a Novel Quinazoline Sulfonamide as a Promising EphB3 Inhibitor: Design, Virtual Combinatorial Library, Synthesis, Biological Evaluation, and Docking Simulation Studies” (Pharmaceuticals, 2021).
